Values belong to the compound of their own block, whether it stands above or below them.
Columns and labels:
IGF-1R [1] = biological target: T1, IGF-1R (Homo sapiens, UniProt P08069); conditions: cited from earlier work
tumor cell lines = conditions: variety of tumor cell lines; cited from earlier work
[2] = tested on: IGF-1R-driven xenograft model; conditions: orally once daily; cited from earlier work
adrenocortical carcinoma = conditions: Phase 3 study; cited from earlier work
thyroid eye disease = conditions: cited from earlier work
malignancies = conditions: Phase I trials; cited from earlier work
[3] = tested on: metastatic pancreatic cancer; conditions: clinical trials, incl. metastatic pancreatic cancer; cited from earlier work
IGF-1R [4] = biological target: T1, IGF-1R; test: IGF-1R biochemical assay (ADP-Glo); conditions: read-out: IGF1R IC50
Protocol: The inhibitory activity against IGF-1R was measured using ADP-Glo assay. The percent (%) inhibition at each concentration of compound is calculated based on and relative to the luminescence signal in the Max and Min control wells contained within each assay plate. The Max control wells contain enzyme and substrate as 0% inhibition, and the Min control wells only contain substrate without enzyme as 100% inhibition. The concentrations and % inhibition values for tested compounds are plotted and the concentration of compound required for 50% inhibition (IC50) is determined with a four-parameter logistic dose response equation.
Table 3 provides IC50 data of representative compounds against IGF-1R using ADP-Glo assay. The IC50 data are designated within the following ranges: A: ≤0.10 μM, B: >0.10 μM to ≤1 μM, C: >1 μM to ≤20 μM

Ba/F3-TEL-IGF-1R cells = test: CellTiter-Glo luminescent cell viability assay; type: cell-based; conditions: cellular IC50, Ba/F3-TEL-IGF-1R cells
Protocol: The CellTiter-Glo luminescent cell viability assay was used to determine the inhibitory activity of the compounds against IGF-1R in Ba/F3-TEL-IGF-1R cells. […] The IC50 data are designated within the following ranges: A: ≤1 μM, B: >1 μM to ≤10 μM, C: >10 μM to ≤20 μM

T1 sequence (P08069 31-1367): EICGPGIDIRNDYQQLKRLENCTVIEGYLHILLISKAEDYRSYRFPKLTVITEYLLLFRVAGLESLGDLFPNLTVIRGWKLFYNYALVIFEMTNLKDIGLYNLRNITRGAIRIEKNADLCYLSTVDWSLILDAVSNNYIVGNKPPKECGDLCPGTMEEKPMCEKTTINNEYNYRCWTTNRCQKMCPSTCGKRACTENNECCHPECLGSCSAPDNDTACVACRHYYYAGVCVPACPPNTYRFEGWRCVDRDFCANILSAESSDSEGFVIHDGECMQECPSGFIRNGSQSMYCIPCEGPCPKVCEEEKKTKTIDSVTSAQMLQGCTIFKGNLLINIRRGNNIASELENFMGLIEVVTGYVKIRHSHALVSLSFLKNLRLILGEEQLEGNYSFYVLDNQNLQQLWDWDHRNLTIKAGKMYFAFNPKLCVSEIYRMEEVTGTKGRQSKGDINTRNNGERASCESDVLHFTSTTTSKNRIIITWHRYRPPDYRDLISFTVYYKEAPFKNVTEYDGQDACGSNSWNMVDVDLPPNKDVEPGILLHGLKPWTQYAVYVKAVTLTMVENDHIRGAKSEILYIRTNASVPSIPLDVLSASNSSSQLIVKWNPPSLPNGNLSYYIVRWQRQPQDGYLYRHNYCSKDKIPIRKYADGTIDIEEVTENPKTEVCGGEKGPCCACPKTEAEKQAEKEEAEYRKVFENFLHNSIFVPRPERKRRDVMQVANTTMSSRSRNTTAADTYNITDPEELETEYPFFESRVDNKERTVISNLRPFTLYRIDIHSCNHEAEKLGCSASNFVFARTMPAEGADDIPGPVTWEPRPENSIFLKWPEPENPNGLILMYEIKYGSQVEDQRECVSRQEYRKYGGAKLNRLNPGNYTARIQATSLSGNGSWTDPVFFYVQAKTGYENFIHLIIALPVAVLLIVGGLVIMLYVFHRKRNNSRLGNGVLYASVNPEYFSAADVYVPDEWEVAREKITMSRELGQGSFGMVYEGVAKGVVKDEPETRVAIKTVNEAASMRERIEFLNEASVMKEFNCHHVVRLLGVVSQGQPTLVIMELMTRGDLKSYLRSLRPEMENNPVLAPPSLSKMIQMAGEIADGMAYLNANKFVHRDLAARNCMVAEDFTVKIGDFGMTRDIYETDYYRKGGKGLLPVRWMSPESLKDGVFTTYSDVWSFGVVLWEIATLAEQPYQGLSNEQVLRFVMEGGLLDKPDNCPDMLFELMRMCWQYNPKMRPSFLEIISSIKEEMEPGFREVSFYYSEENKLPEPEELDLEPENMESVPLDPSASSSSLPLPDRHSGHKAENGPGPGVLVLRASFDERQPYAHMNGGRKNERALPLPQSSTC

Compound: C[C@]1(O)C[C@@H](c2nc(-c3ccc4ccc(-c5ccccc5)nc4c3)c3c(N)nccn32)C1 [OSI-906, Linsitinib]
inhibition of autophosphorylation of human IGF-1R (IGF-1R [1]): potently and selectively inhibits autophosphorylation
in vitro antiproliferative effects (tumor cell lines): in vitro antiproliferative effects
in vivo anti-tumor efficacy [2]: robust in vivo anti-tumor efficacy
overall survival (adrenocortical carcinoma): did not increase overall survival

Compound: teprotumumab
inflammation in thyroid eye disease (thyroid eye disease): decrease inflammation
effectiveness in treating malignancies (malignancies): little effectiveness

Compound: ganitumab
survival rates [3]: largely ineffective at improving survival rates

IC50 (IGF-1R [4]): ≤ 100 nM
IC50 (Ba/F3-TEL-IGF-1R cells): ≤ 1000 nM
Compound: NC(=O)c1c(-c2ccc3ccc(-c4ccccc4)nc3c2)nn([C@H]2C[C@H](CN3CCOCC3)C2)c1N [Example C013, 5-amino-1-((1r,3r)-3-(morpholinomethyl)cyclobutyl)-3-(2-phenylquinolin-7-yl)-1H-pyrazole-4-carboxamide]

Reference: patent US20250145599A1, “CERTAIN CHEMICAL ENTITIES, COMPOSITIONS, AND METHODS” (Retune Pharma Inc., priority 2022, published 2025)
